The target of one test is T1, human Kv1.3 (CHO) (Homo sapiens, UniProt P22001).
T1 construct: expressed in transfected cells; host or cells: CHO
Nature of the test: cell-based.

The next test addresses T2, human Kv1.1 (HEK293) (Homo sapiens, UniProt Q09470).
T2 construct: expressed in transfected cells; host or cells: HEK293
As to the kind of experiment: cell-based.

Bridge positions count the residues as written; N and C are the ends. Peptide text beside a SMILES is read from it.

The IC50 is the midpoint of a concentration-inhibition curve. A lower IC50 goes with greater potency.

T2 sequence (Q09470 whole entry): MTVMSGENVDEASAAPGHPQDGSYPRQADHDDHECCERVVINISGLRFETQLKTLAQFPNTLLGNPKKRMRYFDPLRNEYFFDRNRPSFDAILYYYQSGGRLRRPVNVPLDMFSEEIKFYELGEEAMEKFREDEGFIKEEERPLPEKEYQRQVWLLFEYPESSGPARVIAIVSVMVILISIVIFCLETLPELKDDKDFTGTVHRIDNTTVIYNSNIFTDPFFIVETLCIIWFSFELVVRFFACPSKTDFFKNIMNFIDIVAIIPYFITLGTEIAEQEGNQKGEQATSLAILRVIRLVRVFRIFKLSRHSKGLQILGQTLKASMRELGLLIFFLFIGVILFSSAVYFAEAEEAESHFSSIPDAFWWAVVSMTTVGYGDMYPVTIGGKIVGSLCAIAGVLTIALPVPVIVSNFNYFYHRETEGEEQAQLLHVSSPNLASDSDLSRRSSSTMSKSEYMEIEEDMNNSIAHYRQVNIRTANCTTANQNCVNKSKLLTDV
T1 sequence (P22001 whole entry): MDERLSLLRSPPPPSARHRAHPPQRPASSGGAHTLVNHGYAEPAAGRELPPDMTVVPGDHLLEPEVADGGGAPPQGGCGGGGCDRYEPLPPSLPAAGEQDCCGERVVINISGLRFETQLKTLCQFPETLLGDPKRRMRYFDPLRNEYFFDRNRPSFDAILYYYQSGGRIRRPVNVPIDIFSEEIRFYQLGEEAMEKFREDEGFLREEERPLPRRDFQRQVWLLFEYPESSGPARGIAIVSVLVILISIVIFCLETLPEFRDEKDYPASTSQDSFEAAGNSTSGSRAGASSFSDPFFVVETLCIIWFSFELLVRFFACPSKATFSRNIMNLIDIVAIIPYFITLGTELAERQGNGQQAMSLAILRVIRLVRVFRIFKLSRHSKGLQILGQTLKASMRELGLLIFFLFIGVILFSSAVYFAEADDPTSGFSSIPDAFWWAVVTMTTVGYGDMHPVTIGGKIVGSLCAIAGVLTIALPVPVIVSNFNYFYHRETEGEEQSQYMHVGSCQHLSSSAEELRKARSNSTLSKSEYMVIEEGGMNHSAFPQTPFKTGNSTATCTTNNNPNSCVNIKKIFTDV

For the compound `CC[C@H](C)[C@@H]1NC(=O)[C@H](CCCCN)NC(=O)[C@@H](NC(=O)[C@H](CCCCN)NC(=O)[C@@H](NC(=O)[C@H](CC(N)=O)NC(=O)[C@@H](NC(=O)[C@@H](NC(=O)[C@@H](NC(=O)CN)C(C)C)[C@@H](C)CC)[C@@H](C)CC)C(C)C)CSSC[C@@H]2NC(=O)[C@H](CCCCN)NC(=O)CNC(=O)[C@H](Cc3ccccc3)NC(=O)[C@H](CCCNC(=N)N)NC(=O)[C@H](CCSC)NC(=O)CNC(=O)[C@H](C)NC(=O)[C@H](CCCCN)NC(=O)[C@H](CCCNC(=N)N)NC(=O)[C@@H]3CSSC[C@@H](C(=O)N[C@H](C(=O)N4CCC[C@H]4C(=O)N[C@@H](CCCCN)C(=O)O)[C@@H](C)O)NC(=O)[C@H](Cc4c[nH]cn4)NC(=O)[C@H](CSSC[C@H](NC(=O)[C@H](CCC(N)=O)NC(=O)[C@H](CCCNC(=N)N)NC(=O)[C@H](CO)NC1=O)C(=O)N[C@@H](CC(C)C)C(=O)N[C@@H](CCC(=O)O)C(=O)N1CCC[C@H]1C(=O)N3)NC(=O)[C@H](CCCCN)NC(=O)CNC(=O)[C@H](CC(N)=O)NC(=O)[C@H](CCSC)NC2=O` [K19R] (H-GVIINVKCKISRQCLEPCRKAGMRFGKCMNGKCHCTPK-OH; disulfide 8-28, 14-33, 18-35), the IC50 was determined as 0.0126 nM on human Kv1.3 (CHO) and 0.00241 nM against human Kv1.1 (HEK293).

For `CC[C@H](C)[C@@H]1NC(=O)[C@H](CCCCN)NC(=O)[C@@H](NC(=O)[C@H](CCCCN)NC(=O)[C@@H](NC(=O)[C@H](CC(N)=O)NC(=O)[C@@H](NC(=O)[C@@H](NC(=O)[C@@H](NC(=O)CN)C(C)C)[C@@H](C)CC)[C@@H](C)CC)C(C)C)CSSC[C@@H]2NC(=O)[C@H](CCCCN)NC(=O)CNC(=O)[C@H](Cc3ccccc3)NC(=O)[C@H](CCCNC(=N)N)NC(=O)[C@H](CCSC)NC(=O)CNC(=O)[C@H](C)NC(=O)[C@H](C)NC(=O)[C@H](CCCCN)NC(=O)[C@@H]3CSSC[C@@H](C(=O)N[C@H](C(=O)N4CCC[C@H]4C(=O)N[C@@H](CCCCN)C(=O)O)[C@@H](C)O)NC(=O)[C@H](Cc4c[nH]cn4)NC(=O)[C@H](CSSC[C@H](NC(=O)[C@H](CCC(N)=O)NC(=O)[C@H](CCCNC(=N)N)NC(=O)[C@H](CO)NC1=O)C(=O)N[C@@H](CC(C)C)C(=O)N[C@@H](CCC(=O)O)C(=O)N1CCC[C@H]1C(=O)N3)NC(=O)[C@H](CCCCN)NC(=O)CNC(=O)[C@H](CC(N)=O)NC(=O)[C@H](CCSC)NC2=O` [K20A] (H-GVIINVKCKISRQCLEPCKAAGMRFGKCMNGKCHCTPK-OH; disulfide 8-28, 14-33, 18-35), the results for the IC50 against human Kv1.3 (CHO) and on human Kv1.1 (HEK293) were 1.04 nM and 0.185 nM, respectively.

On to `CC[C@H](C)[C@@H]1NC(=O)[C@H](CCCCN)NC(=O)[C@@H](NC(=O)[C@H](CCCCN)NC(=O)[C@@H](NC(=O)[C@H](CC(N)=O)NC(=O)[C@@H](NC(=O)[C@@H](NC(=O)[C@@H](NC(=O)CN)C(C)C)[C@@H](C)CC)[C@@H](C)CC)C(C)C)CSSC[C@@H]2NC(=O)[C@H](CCCCN)NC(=O)CNC(=O)[C@H](Cc3ccccc3)NC(=O)[C@H](CCCNC(=N)N)NC(=O)[C@H](CCSC)NC(=O)CNC(=O)[C@H](C)NC(=O)[C@H](CCC(=O)O)NC(=O)[C@H](CCCCN)NC(=O)[C@@H]3CSSC[C@@H](C(=O)N[C@H](C(=O)N4CCC[C@H]4C(=O)N[C@@H](CCCCN)C(=O)O)[C@@H](C)O)NC(=O)[C@H](Cc4c[nH]cn4)NC(=O)[C@H](CSSC[C@H](NC(=O)[C@H](CCC(N)=O)NC(=O)[C@H](CCCNC(=N)N)NC(=O)[C@H](CO)NC1=O)C(=O)N[C@@H](CC(C)C)C(=O)N[C@@H](CCC(=O)O)C(=O)N1CCC[C@H]1C(=O)N3)NC(=O)[C@H](CCCCN)NC(=O)CNC(=O)[C@H](CC(N)=O)NC(=O)[C@H](CCSC)NC2=O` [K20E] (H-GVIINVKCKISRQCLEPCKEAGMRFGKCMNGKCHCTPK-OH; disulfide 8-28, 14-33, 18-35), for which the IC50 against human Kv1.3 (CHO) worked out at 0.0254 nM; at human Kv1.1 (HEK293), 0.00576 nM.

These data come from patent publication US20090299044A1 (priority 2006, published 2009).
